Laboratory results reported in patent publication US9695155B2, “Herbicidal substituted pyrimidinyloxy benzene compounds” (E. I. DU PONT DE NEMOURS AND COMPANY, priority 2013, dated 2017).

Columns and labels:
field violet = assay: Test D preemergence; type: in vivo, Viola arvensis
Procedure, shortened: (§1)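 Visual ratings from 0 (no effect) to 100 (complete control) relative to untreated plants were taken 7–21 days after treatment. Chemicals in a surfactant-containing solvent mixture were applied preemergence to seeds in silt loam, or postemergence to plants 2–18 cm tall (1–4 leaves) grown in a peat-based potting medium.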

deadnettle = assay: Test D preemergence; type: in vivo, Lamium amplexicaule
Procedure, shortened: as §1

lambsquarters [1] = assay: Test D preemergence; type: in vivo, Chenopodium album
Procedure, shortened: as §1

blackgrass = assay: Test D postemergence; type: in vivo, Alopecurus myosuroides; settings: Postemergence, scale 0 to 100 (0 no effect, 100 complete control)
Procedure, shortened: as §1

canarygrass = assay: Test D postemergence; type: in vivo, Phalaris minor
Procedure, shortened: as §1

galium = assay: Test D postemergence; type: in vivo, Galium aparine
Procedure, shortened: as §1

green foxtail = assay: Test D postemergence; type: in vivo, Setaria viridis
Procedure, shortened: as §1

kochia = assay: Test D postemergence; type: in vivo, Kochia scoparia
Procedure, shortened: as §1

lambsquarters [2] = assay: Test D postemergence; type: in vivo, Chenopodium album
Procedure, shortened: as §1

oilseed rape = assay: Test D postemergence; type: in vivo, Brassica napus
Procedure, shortened: as §1

wild oat = assay: Test D postemergence; type: in vivo, Avena fatua
Procedure, shortened: as §1

[3] = 31 g ai/ha, scale 0 (no effect) to 100 (complete control)
[4] = 62 g ai/ha, scale 0 to 100 (0 no effect, 100 complete control)
[5] = 125 g ai/ha, scale 0 to 100 (0 no effect, 100 complete control)
[6] = 250 g ai/ha, scale 0 to 100 (0 no effect, 100 complete control)

## N#Cc1cccc(Oc2ncc(Cl)cn2)c1-n1cc(-n2ccc(C(F)(F)F)n2)cn1 [Compound 284]
Field violet; [3]
  Plant response rating, Field Violet: 45
Field violet; 62 g ai/ha, scale 0-100
  Plant response rating, Field Violet: 100
Field violet; 125 g ai/ha, scale 0-100
  Plant response rating, Field Violet: 100
Field violet; 250 g ai/ha, scale 0-100
  Plant response rating, Field Violet: 100
deadnettle; [3]
  Plant response rating, Deadnettle: 35
deadnettle; 62 g ai/ha, scale 0-100
  Plant response rating, Deadnettle: 45
deadnettle; 125 g ai/ha, scale 0-100
  Plant response rating, Deadnettle: 75
deadnettle; 250 g ai/ha, scale 0-100
  Plant response rating, Deadnettle: 100
Lambsquarters [1]; [3]
  Plant response rating, Lambsquarters: 30
Lambsquarters [1]; 62 g ai/ha, scale 0-100
  Plant response rating, Lambsquarters: 100
Lambsquarters [1]; 125 g ai/ha, scale 0-100
  Plant response rating, Lambsquarters: 100
Lambsquarters [1]; 250 g ai/ha, scale 0-100
  Plant response rating, Lambsquarters: 100
blackgrass; 62 g ai/ha
  Plant response rating, Blackgrass: 25
blackgrass; 31 g ai/ha
  Plant response rating, Blackgrass: 20
blackgrass; 125 g ai/ha
  Plant response rating, Blackgrass: 30
blackgrass; 250 g ai/ha
  Plant response rating, Blackgrass: 35
canarygrass; 31 g ai/ha, scale 0-100
  Plant response rating, Canarygrass: 20
canarygrass; [4]
  Plant response rating, Canarygrass: 20
canarygrass; [5]
  Plant response rating, Canarygrass: 25
canarygrass; [6]
  Plant response rating, Canarygrass: 25
galium; 31 g ai/ha, scale 0-100
  Plant response rating, Galium: 70
galium; [4]
  Plant response rating, Galium: 85
galium; [5]
  Plant response rating, Galium: 85
galium; [6]
  Plant response rating, Galium: 95
Green foxtail; 31 g ai/ha, scale 0-100
  Plant response rating, Foxtail, Green: 10
Green foxtail; [4]
  Plant response rating, Foxtail, Green: 10
Green foxtail; [5]
  Plant response rating, Foxtail, Green: 50
Green foxtail; [6]
  Plant response rating, Foxtail, Green: 85
kochia; 31 g ai/ha, scale 0-100
  Plant response rating, Kochia: 100
kochia; [4]
  Plant response rating, Kochia: 100
kochia; [5]
  Plant response rating, Kochia: 100
kochia; [6]
  Plant response rating, Kochia: 100
Lambsquarters [2]; 31 g ai/ha, scale 0-100
  Plant response rating, Lambsquarters: 85
Lambsquarters [2]; [4]
  Plant response rating, Lambsquarters: 98
Lambsquarters [2]; [5]
  Plant response rating, Lambsquarters: 100
Lambsquarters [2]; [6]
  Plant response rating, Lambsquarters: 100
Oilseed rape; 31 g ai/ha, scale 0-100
  Plant response rating, Oilseed Rape: 65
Oilseed rape; [4]
  Plant response rating, Oilseed Rape: 70
Oilseed rape; [5]
  Plant response rating, Oilseed Rape: 100
Oilseed rape; [6]
  Plant response rating, Oilseed Rape: 100
Wild oat; 31 g ai/ha, scale 0-100
  Plant response rating, Oat, Wild: 20
Wild oat; [4]
  Plant response rating, Oat, Wild: 25
Wild oat; [5]
  Plant response rating, Oat, Wild: 25
Wild oat; [6]
  Plant response rating, Oat, Wild: 35
